From patent US20040224935A1, “Topical antiandrogenic steroids” (Endorecherche, Inc., priority 2003, published 2004)
Like-named read-outs stand apart in the source and are kept apart here.

Tests used:
[1] = test system: Hamster's ear sebaceous glands; test: Topical antiandrogenic activity, histomorphometry of the ear sebaceous glands in the hamster; assay type: in vivo, Male Golden Syrian hamster; conditions: Mesocricetus auratus, 336 h, once daily, 14 days, sebaceous gland area, read-out: Antiandrogenic activity in Hamster's sebaceous glands Inh. Vs Cx (%); for inhibition in vivo at 0.001 mg: dose 1 μg applied topically on left ear of intact male hamster; for inhibition in vivo at 0.003 mg: dose 3 μg applied topically on left ear of intact male hamster; for inhibition in vivo at 0.01 mg: dose 10 μg applied topically on left ear of intact male hamster
From the text: Column 3 represents the dose of antiandrogenic compounds applied on the left ear of the intact male hamster.
Column 4 represents the relative inhibition in % of the area of the sebaceous gland of the left ear versus control hamster. Higher values approaching the effect of castration are preferable
The Antiandrogenic activity of antiandrogenic compounds has been measured using a Histomorphometry assay of the Ear Sebaceous Glands in the Hamster
1. Animals Male Golden Syrian, Hamster (SYR) of 110-120 g were obtained from Harlan Sprague Dawlay (Madison, USA) and housed up to 2 per cage in plastic cages in a temperature (22±3° C.) and light (12 h light/day, lights on at 7 h 15) in a controlled environment. The hamsters were fed with Certified Rodent Diet 5002 (pellet) and tap water ad libitum. The animals were acclimated for at least five days before the beginning of the study. Animals were randomly assigned to groups of eight hamsters. One group of hamsters was castrated under isoflurane-induced anesthesia on the day of dosing initiation (SD 1) and used as control group.
2. Treatments To evaluate the antiandrogenic activity, tested compounds were applied topically on the inner part of the left ear, once daily, for 14 days. Ten μL solution of acetone: ethanol: propylene Glycol (1:1:2; v:v:v) containing 0.1, 0.3 or 1.0 mg/mL of tested compound was carefully applied onto a region between the two cartilage ridges of the ventral surface of left pinna. For animals in the castrated and intact control groups ten-μL vehicle was applied onto the left ear. No solution will be applied on the right ear for any animals of the study.
3. Postmortem Observations and Measurements On Study Day 15, the hamsters were euthanized by cervical dislocation under isoflurane anesthesia. The left and right ears were collected attached together by the head skin, flat fixed on a paper and were immersed in 10% neutral buffered formalin. From the flat fixed ear and using paper puncture that makes a hole of 6 mm, the region where solution was applied was collected from each ear. Using a scalpel blade, the collected 6 mm round ear specimen was cut in the middle between the two cartilage ridges. The two equal parts of the ear round specimen were embedded in paraffin. After processing the tissue, the two parts were vertically embedded parallel to each other in a way that the flat 6 mm area was facing out. From each paraffin block, one section (5 μm thick) was cut and collected on a glass slide. Thus, each slide contained two elongated sections of 6 mm length. Slides were stained with hematoxylin and eosin.
4. Analysis of Sebaceous Gland Area Using the video camera and objective lens number X5 of the light microscope, the resulting field that appears on the screen has a length of 0.953 mm. From the glass slide, when we have examined the first 6 mm long section from the left to the right, the first and second fields were ignored and the third and fourth fields were captured for analysis by the image analyzer. Each field has the length of 0.953 mm. With the help of the screen mouse, the sebaceous glands within the whole field length (0.953mm) were marked. Also, an area with the length of the whole field and the height between stratum granulosum and the upper edge of the cartilage was drawn.
The image analyzer calculated the total area of the sebaceous glands (μm^2) in each examined field. We also obtained the area, which has the length of 0.953 mm and the height between stratum granulosum and the cartilage. In addition, the percentage of the area occupied by the glands was obtained. Thus, for each ear, two sections were cut and two fields from each section were analyzed. The total of the four readings was averaged and the mean standard of error calculated by the image analyzer. The results were expressed in μm^2 as the total surface of glands per field and also as percentage of the area occupied by the glands.

[2] = test system: rat seminal vesicle; test: Systemic antiandrogenic activity in immature male rats (castrated, DHT implant), seminal vesicle weight; conditions: po, 168 h, 0.5 mg/animal per os once daily 7 days, % efficacy relative to inhibition by flutamide, read-out: RAT (in vivo) (systemic) SV Inh % inh. (0.5 mg, per os)
Experimental: Column 6 represents the % of antiandrogenic efficacy on the rat seminal vesicle, relative to the percentage of inhibition by flutamide calculated by the formula:
(§1) % efficacy versus Flu=100×% inhib (compound)/% inhib (Flu).
(§2) Where the percentage of inhibition (% inhib) is calculated by the following formula:
(§3) % Inhib=100−[W (compound)−W (control)/W (DHT)−W (control)]×100.
W is the weight of the seminal vesicle.
(§4) C Systemic antiandrogenic activity (immature male rats)
(§5) 1. Animals Immature male rats (Crl:CD(SD)Br) 22 to 24-day old were obtained from Charles-River, Inc. (St-Constant, Quebec, Canada) and housed up to 5 per cage in plastic bins in a temperature (23±1° C.)—and light (12 h light/day, lights on at 7h15)—controlled environment. The rats were fed rodent chow and tap water ad libitum. The day following their arrival, the animals were orchidectornized (CX) under Isoflurane anesthesia via scrotal route and randomly assigned to groups of 5 animals. One silastic implant of dihydrotestosterone (DHT; length of implant: 1 cm) was inserted subcutaneously in the dorsal area of animals at the time of orchidectomy. One group of 5 animals was CX only as control (no DHT implant inserted).
(§6) 2. Treatments To evaluate the antiandrogenic activity, tested compounds were administered orally by gavage once daily at a dose of 0.5 mg/animal for 7 days (SD 1 to 7). Compounds were solubilized (when possible) in dimethylsulfoxide (DMS, 10% final concentration) and administered as suspension in 0.4% methylcellulose. Rats in CX control and CX+DHT control groups received the vehicle alone during the 7-day period. One group of animals received the antiandrogen Flutamide as reference. The animals were killed by cervical dislocation under isoflurane anesthesia on the 8th morning following castration. The ventral prostate and seminal vesicles were rapidly dissected and weighed.
(§7) 3. Calculations and Statistical Analysis The percentage of inhibition (% inhib) is calculated by the following formula:
(§8) This percentage is reported as % of efficacy, relatively to the percentage of inhibition of flutaride calculated by the formula: % efficacy versus Flu=100×% inhib (compound)/% inhib (Flu).
(§9) W is the weight of the prostate or the seminal vesicle.

[3] = test system: Shionogi mouse mammary carcinoma cells; test: In vitro androgenic/antiandrogenic activity, DHT-stimulated Shionogi cell number; assay type: cell-based; conditions: for Shionogis (In Vitro) VS OH-FLU (ratio of Ki of hydroxyflutamide versus tested compound): OH-Flu = 1, DHT-stimulated cell number, higher values preferable
[4] = test system: rat prostate; test: Systemic antiandrogenic activity in immature male rats (castrated, DHT implant), prostate weight; conditions: po, 168 h, 0.5 mg/animal per os once daily 7 days, % efficacy relative to inhibition by flutamide, read-out: RAT (in vivo) (systemic) Prostate Inh. % inh. (0.5 mg, per os)
Experimental: Column 5 represents the % of antiandrogenic efficacy in rat prostate, relatively to the percentage of inhibition of flutamide calculated by the formula:
as §1, §2
% lnhib=100−[W (compound)−W (control)/W (DHT)−W (control)]×100.
W is the weight of the prostate.
as §4, §5, §6, §7, §3, §8, §9

[5] = Mus musculus, read-out: Shionogis (In Vitro) IC50(nM), inhibition of DHT-stimulated cell number, 10-12 days

Compound	inhibition in vivo at 0.001 mg [1] [%]	inhibition in vivo at 0.003 mg [1] [%]	inhibition in vivo at 0.01 mg [1] [%]	inhibition in vivo at 0.5 mg [2] [%]	IC50 [3, 5] [nM]	IC50 ([3]; read-out: Shionogis (In Vitro) IC50, inhibition of DHT-stimulated cell number, 10-12 days) [nM]	inhibition in vivo at 0.5 mg [4] [%]	Shionogis (In Vitro) VS OH-FLU (ratio of Ki of hydroxyflutamide versus tested compound) [3]
CC1(C)CC2C3CCc4c(C#N)cccc4C3CC[C@]2(C)[C@H]1O (stereo partly drawn) [EM-2557]	52.4	42.8	66.6	0	15	18	6	
CC#C[C@@H]1CC2C3CCc4c(C#N)cccc4C3CC[C@]2(C)[C@H]1O (stereo partly drawn) [EM-2627]	14.3	42.8	66.6	25	7.8		0	8.3
CCC=C[C@]1(O)CCC2C3CCc4c(C#N)cccc4C3CC[C@@]21C (stereo partly drawn) [EM-3144]	9.5	71.4	71.4	12	4.4		8	8.5
CCCC#C[C@@H]1CC2C3CCc4c(C#N)cccc4C3CC[C@]2(C)[C@H]1O (stereo partly drawn) [EM-3165]	19	14.3	23.8	14	15.1		1	7.2
CC(C)C#C[C@]1(O)CCC2C3CCc4c(C#N)cccc4C3CC[C@@]21C (stereo partly drawn) [EM-3166]	47.6	66.6	76.2	15	21.8		0	5.0
CC(=O)O[C@H]1C(C)(C)CC2C3CCc4c(C#N)cccc4C3CC[C@@]21C (stereo partly drawn) [EM-3178]	9.5	9.5	38.1	0	17		0	4.1
CC[C@@]1(C)C[C@H]2[C@@H]3CCc4c(C#N)cccc4[C@H]3CC[C@]2(C)C1=O [EM-3180, 4-cyano-16α-methyl-16β-ethyl-1,3,5(10)-estratrien-17-one]	57.1	90.5	95.2	0	35		0	2
CC[C@]1(C)CC2C3CCc4c(C#N)cccc4C3CC[C@]2(C)C1=O (stereo partly drawn) [EM-3217]	4.8	0	42.8					˜1
CC[C@@]1(C)C[C@H]2[C@@H]3CCc4c(C#N)cccc4[C@H]3CC[C@]2(C)[C@H]1O [EM-3221, 4cyano-16α-methyl-16β-ethyl-1,3,5(10)-estratrien-17β-ol]	0	9.5	33.3	1	3.2		0	6.6
C[C@@H]1CC2C3CCc4c(C#N)cccc4C3CC[C@]2(C)C1=O (stereo partly drawn) [EM-3223]	25.9	37	59.2	18			0	
CC[C@]1(C)CC2C3CCc4c(C#N)cccc4C3CC[C@]2(C)[C@H]1O (stereo partly drawn) [EM-3226]	7.4	29.6	33.3	0	3.6		0	5.9
CCC1(CC)CC2C3CCc4c(C#N)cccc4C3CC[C@]2(C)C1=O (stereo partly drawn) [EM-3411]	3.7	14.8	62.9	10			0	˜1
